# Source: patent US20210008084A1, “MEVALONATE PATHWAY INHIBITOR AND PHARMACEUTICAL COMPOSITION THEREOF” (TSINGHUA UNIVERSITY, priority 2017, published 2021)
# Legend:
# B16F10 cells [1] = assay: Phagocytosis of drug-treated B16F10 cells by bone marrow-derived DC cells; format: cell-based, mouse; details: B16F10 treated with Sim 30 μM 12 h, Zol 30 μM 24 h, Doxorubicin 10 μM 12 h; flow cytometry
# Protocol: Method: C57/b6 mouse bone marrow cells were cultured in DC differentiation solution, RMPI 1640+10 ng/ml GM-CSF+10 ng/ml IL-4 containing 10% FBS for 7 days. It was ready for use when the percentage of DC cells was above 90%.
# B16F10 cells were plated in 6-well plates at a density of 5×10^5. After being adhered for 12 hours, they were treated with Sim and Zol in the figure, and the control group was treated with normal culture medium. The cells treated with the drug were digested with trypsin, and the cells were obtained after centrifugation.
# Cell Staining: Flow Cytometry Staining: B16F10 tumor cells were stained for 30 min in 1 ug/ml CFSE at room temperature, and washed twice with PBS after staining; BMDC cells were stained for 30 min in 1 uM CellTracker™ Red, and washed twice with PBS after staining. Cells were ready for use. Immunofluorescence staining: B16F10 cells were stained with DiD, and DC cells were stained with CFSE.
# After the drug treatment, the B16F10 control group Ctrl, Sim treatment group, Zol treatment group, and DOX treatment group were co-incubated with DC cells in a 1:1 ratio for 3 hours in an incubator at 37° C., and fixed with 200 ul fluorescent antibody preservation solution (1 ml formaldehyde, 2 g glucose dissolved in 100 ml PBS) after the incubation. Flow cytometer BD FACSAria SORP was used for detection. Data was analyzed with Flojo 7.6.2 software. Cell Tracker™ Red-positive DC cells were first circled out, and the number of CellTracker™ Red-positive DC cells phagocytosing CFSE-positive tumor cells was analysized.
# B16F10 cells [2] = assay: Apoptosis of B16F10 cells, Annexin V and PI staining, flow cytometry; format: cell-based, mouse; details: after the drug treatment
# Protocol: After the drug action, the cells were digested with trypsin into a single-cell suspension, washed with PBS, and stained with Annexin V and PI according to the steps of the apoptosis kit. After staining, data was collected by a flow cytometer, and the data was analyzed by FlowJo7.6. Total RNA was extracted from cells according to the Trizol method, and the RNA was used as a template, and the RNA was reverse transcripted using a reverse transcription kit to cDNA. The obtained cDNA was used for real-time quantitative PCR. 10 μl reaction system was configured according to qPCR SYBR Green Master Mix product instructions, three replicates were set up for each sample. The experimental data was collected using a fluorogenic quantitative PCR instrument LightCycler480 of Roche, and the data was calculated according to the 2^−ΔΔc (t) method.
# 4T1 cells = assay: CRT and ERp57 on tumor cell membrane after intratumoral injection, 4T1 subcutaneous model; format: in vivo, mouse; details: 4T1 tumors in BALB/c mice, harvested day 14
# Protocol: In vivo experiments: 1×10^6 4 T1 cells were transplanted subcutaneously into the left hip of BALB/c mice and administered starting on the 8th day after tumor transplantation: Sim, dissolved in 75% DMSO, 2 mg/kg, intratumoral injection (i.t.), once every two days for a total of 3 times; Zol, dissolved in sterile PBS, 1 mg/kg, i.t. for once. Tumors were harvested on the 14th day after tumor transplantation. Tumor dissociation kit (mouse) was used to dissociate the tumor into single cells for staining. The staining procedure was performed according to the in vitro experiments as mentioned above.
# CT26 cells = assay: Drug-treated dying CT26 cells as tumor vaccine, re-challenge with live CT26 cells; format: in vivo, mouse; details: BALB/c mice immunized with CT26 cells treated 72 h; 30 days after transplantation; n=10
# Protocol: Method: CT26 cells were treated with simvastatin or zoledronic acid. 1.5-3×10^6 dying cells were implanted subcutaneously in the right side of BALB/c mice. The control group was injected with PBS. 1×10^6 live CT26 cells were implanted subcutaneously in the left side of the mice, and tumor volume was observed and measured. Mice with tumor volumes >100 mm^3 were identified as tumor-growing mice, and the number of mice without tumor growth was recorded.
# A key factor to determine the ability of drugs to induce immunogenic cell death is whether drug-treated tumor cells can be used as vaccines to protect the body against the re-challenge of the tumor cells. We treated CT26 mouse colon cancer cells with Sim and Zol for 72 h to a dying state, and BALB/c mice were immuned with these dying cells, wherein PBS was injected in the control group. After 7 days, the mice were injected with 5×10^5 live CT26 cells (re-challenge), and the tumor growth was observed after 7 days. 100% of the mice in the control group (n=10) grew tumors on day 9. After 30 days of transplantation, in mice immunized with CT26 cells treated with Sim (n=10) and Zol (n=10), the ratios of tumor-free mice were 80% and 90%, respectively, with statistical difference (FIG. 5).
# melanoma = details: patients progressing after Ipilimumab; cited from earlier work
# [3] = after at least 3 years of treatment; more than 1,800 patients; cited from earlier work
# B16F10 cells [4] = assay: Type I interferon and ISG gene expression by Q-PCR in B16F10; format: cell-based, mouse; details: GGOH 20 μM with Sim 10 μM or Zol 10 μM, 48 h
# Protocol: Method: B16F10 cells were cultured with RPMI medium 1640+10% FBS+1% PS, and the remaining cells were cultured with DMEM+10% FBS+1% PS. 5×10^5 B16F10 and 4T1 cells were plated in 6-well plates and adhered for 12 hours, and then treated with simvastatin and zoledronic acid in the figure, and the control group was treated with normal culture medium. A part of the cells treated with the drugs were lysed with 1 ml of Trizol, and RNA was extracted. The expression of IFN-β1, IRF7, IFI44L, IL-15, MAGEB-2 and other genes was detected by LightCycler® 480 II using a Q-PCR method (see table 3 for the primer sequence). In addition, the rescue effect of GGOH on the role of simvastatin and zoledronic acid to promote the release of type I interferon (IFN-β1) and the expression of type I interferon-related stimulated genes ISGs was also tested.
molecule,measurement,setting,value
"COc1cccc2c1C(=O)c1c(O)c3c(c(O)c1C2=O)C[C@@](O)(C(=O)CO)C[C@@H]3O[C@H]1C[C@H](N)[C@H](O)[C@H](C)O1 [dox, doxorubicin]",DC cells that phagocytosed tumor cells,B16F10 cells [1],approximately 38%
O=P(O)(O)C(O)(Cn1ccnc1)P(=O)(O)O [zoledronic acid],DC cells that phagocytosed tumor cells,B16F10 cells [1],about 35%
same,proportion of cells in the late stage of apoptosis (Annexin+PI+),B16F10 cells [2],about 50%
same,CRT expressed on the membrane surface,4T1 cells,about 1.7 times that of the control group
same,ERp57 expressed on the membrane surface,4T1 cells,about 1.7 times that of the control group
same,ratio of tumor-free mice,CT26 cells,90%
Nivolumab: antibody targeting PD-1,patients with complete remission,melanoma,32%
Ipilimumab: humanized CTLA-4 antibody,patient survival rate,[3],approximately 20%
CCC(C)(C)C(=O)O[C@H]1C[C@@H](C)C=C2C=C[C@H](C)[C@H](CC[C@@H]3C[C@@H](O)CC(=O)O3)[C@H]21 [simvastatin],DC cells that phagocytosed tumor cells,B16F10 cells [1],51.6%
same,proportion of cells in the late stage of apoptosis (Annexin+PI+),B16F10 cells [2],about 50%
same,CRT expressed on the membrane surface,4T1 cells,about 1.7 times that of the control group
same,ERp57 expressed on the membrane surface,4T1 cells,about 1.7 times that of the control group
same,ratio of tumor-free mice,CT26 cells,80%
CC(C)=CCC/C(C)=C/CC/C(C)=C/CC/C(C)=C/CO [GGOH],effect of GGOH on release of type I interferon and ISG by simvastatin and zoledronic acid,B16F10 cells [4],counteract
